In patent US20220142959A1, “LEUCINE, ACETYL LEUCINE, AND RELATED ANALOGS FOR TREATING DISEASE” (priority 2019, published 2022):

Tested on: M1-type and M2-type inflammatory markers (mRNA)
Experiment: Real time rt-PCR of inflammatory markers in TBI mouse cortex
Format: in vivo, mice
Settings: for expression of inflammatory markers / pro-inflammatory mediators (overall): CCI induced TBI in mice
Description: Controlled cortical impact (CCI) induced TBI was performed in male C57BL6/J mice (20-25 g). Briefly, after a 10-mm midline incision was made over the skull, the skin and fascia were retracted, and a 4-mm craniotomy was made on the central aspect of the left parietal bone of mice under surgical anesthesia (2-3% isoflurane evaporated in a gas mixture containing 70% N20 and 30% 02). Moderate injury was induced in the exposed brain by a custom microprocessor-controlled and compressed air driven pneumatic impactor of 3.5 mm diameter tip with the impact velocity of 6 m/s and a deformation depth of 2 mm.
N-Acetyl-L-Leucine (“NAL” or “NALL”) was dissolved in ethanol to prepare a 50 mg/ml solution which was then diluted in water to give a 10 mg/ml solution. About 0.25 ml of the NAL solution (10 mg/ml) was orally administered in mice at a […] (2.5 mg NAL/25 g mouse) via oral gavage each day after CCI induced TBI for 4 days. Mice were also fed with NAL at 0.5 mg/kg chow powder chow mixed with diet gel for up to 7 days after injury.
The expression level of M1-type pro-inflammatory markers Nos2, Nlrp3, IL-1β, TNF, IFNβ and Nox2 in the perilesional area in TBI mouse cortices were determined by real time rt-PCR. The expression level of M2-type markers Socs3, YM-1, IL4ra and Arg-1 in cortical tissue was also determined.
Total RNA isolated from the ipsilateral cortex using miRNeasy Mini Kit (Qiagen, Cat No. 217004) was converted into cDNA using High Capacity RNA to cDNA kit (Applied Biosystem, Cat. No. 4387406) as per manufacturer's instruction. cDNA TaqMan® Universal Master Mix II (Applied Biosystems, Cat. No. 4440040) was used to perform quantitative real-time PCR amplification as described previously using 20× TaqMan® Gene Expression Assay (Applied Biosystems) for following mouse genes were used: Gapdh (Mm99999915_g1), NLRP3 (Mm00840904_m1), NOX2 (Mm01287743_m1), iNOS (Mm00440502_m1), TNFα (Mm00443258_m1), IFnβ1 (Mm00439552_s1), IL-10 (Mm01288386_m1), IL1b (Mm00434228_m1), Arg1 (Mm00475988_m1), SOCS3 (Mm00545913_s1), YM-1 (Mm00657889_mH) and IL-4ra (Mm01275139_m1) (Applied Biosystems). Reactions were amplified and quantified using a 7900HT Fast Real-Time PCR System and corresponding software (Applied Biosystems). Relative gene expression normalized to Gapdh was calculated based on the comparative Ct method.

[1] = NAL fed mouse cortices as compared to sham mice
[2] = cortices of NAL fed vs vehicle fed TBI mice

`CC(=O)N[C@@H](CC(C)C)C(=O)O` [ALL, acetyl-L-leucine] was tested, and the “expression of inflammatory markers / pro-inflammatory mediators (overall)” value was “modulates the expression of pro-inflammatory mediators”, the “expression of inflammatory markers / pro-inflammatory mediators (overall)” value (listed as NAL) was “reduces expression of several inflammatory markers” and the “levels of IL-4ra” value [1] was “remained unaltered”. For the same molecule, the “levels of Socs3” value [1] was “remained unaltered”, the “levels of YM-1” value [1] was “remained unaltered” and the “mRNA level of IFNβ” value [2] was “decrease”. The “mRNA level of Nox2” value [2] was “decrease” and the “levels of Arg-1” value (injured mouse cortex, NAL vs vehicle fed TBI mice) was “lowered”.
